Data published in patent US20230010258A1, “COMPOSITION FOR PREVENTING OR INHIBITING AXONAL DEGENERATION” (CHECKMATE THERAPEUTICS INC., priority 2019, published 2023).
Counter-ions that a name gives are not always drawn.

Assays:
[1] = tested on: phosphorylation of JNK protein, a representative sub-regulatory marker of SARM1; details: MKN1 cells, Western blot, Hsp90 as housekeeping protein
Description: Accordingly, in order to evaluate the axonal degeneration inhibitory effects of the compounds according to the present invention, the abilities of these compounds to inhibit SARM1 enzyme were analyzed. Specifically, whether phosphorylation of JNK protein, a representative sub-regulatory marker of SARM1, decreased, was evaluated by Western blot assay. A method for preparing the protein used in the Western blot assay is as follows. […] The entire cell lysate was fractionated using a centrifuge, and then only the solution containing the protein was extracted. The extracted protein was quantified by the Bradford method. The protein of the same concentration obtained through quantification was separated by SDS-polyacrylamide gel electrophoresis, and then transferred to a PVDF membrane. […] For visualization, an enhanced chemiluminescence system was used. Western blot assay was performed using JNK protein, a representative marker whose phosphorylation is regulated by SARM1, and the housekeeping protein Hsp90 was used for quantitative comparison of expression.

[2] = tested on: retinal ganglion cell axons; test: Tadpole optic nerve axotomy model, axon survival score (Experimental Example 4); assay type: in vivo, Xenopus tropicalis; details: axotomy at stage 43, evaluated 48 hours after axotomy, control DMSO
Description: In order to verify the axon protective effect of the compound according to the present invention in the tadpole optic nerve axotomy model, an experiment was conducted in the same manner as in Experimental Example 3. Specifically, GFP-expressing DNA was delivered into one retina of a Xenopus tropicalis tadpole at stage 27 (before retinal development) by electroporation. At stage 43 (the time when the connection between the retina and the visual center of the brain is finished), axons of the epectroporated retina were axotomized, and the tissue was fixed at 24-hour intervals, followed by extraction of the brain. Next, the ventral midline of the brain was excised and unfolded, and then the GFP signal in the contra-lateral brain hemisphere was imaged with a confocal microscope (LSM700, Carl Zeiss, 20×, z-step 3 μm). Thereby, it was possible to observe retinal ganglion cell axons located along the optic tract extending from the optic chiasm to the optic tectum. […] Axonal degeneration could be quantified because the continuous GFP signal disappeared along the optic tract over time after axotomy. […] The degree of inhibition of axonal degeneration by the drug was evaluated 48 hours after axotomy. […] The percentage of healthy axons in the drug group relative to the control group taken as 100% was calculated and used as the axon survival score (0 to 100%).

[3] = tested on: axonal degeneration; details: cited from earlier work
[4] = tested on: optic nerve axons; test: Tadpole optic nerve axotomy model, delay in Wallerian degeneration (Experimental Example 3); assay type: in vivo, Xenopus tropicalis; details: optic nerve axotomized at stage 41, 48 hours after treatment
Description: In order to verify the axon protective effect of the compound according to the present invention in the tadpole optic nerve axotomy model, an experiment was conducted according to the design shown in FIG. 13. Specifically, an in vitro fertilized Xenopus tropicalis (African frog) embryo (Nasco, Fort Atkinson, Wis. 53538, USA) is cultured to stage 27, and then a plasmid DNA expressing Enhanced Green Fluorescence Protein (EGFP) is delivered into the retinal progenitor cells of one eye by an electroporation technique. After culturing to stage 41, the axons of the retinal ganglion cells expressing the green fluorescent protein reach the optic tectum of the contralateral brain hemisphere, and this axon bundle is referred to as the optic nerve. When the optic nerve is axotomized at stage 41, Wallerian degeneration occurs in which axons distal from the cell body degenerate by fragmentation over about 72 hours. […] Wallerian degeneration of the Xenopus optic nerve occur in a stereotypical pattern at 24 hours, 48 hours and 72 hours after axotomy, and the degree of delay in Wallerian degeneration was quantified as percentage by comparing the degree of Wallerian degeneration in the drug-treated group with this pattern.

O=C(NCc1ccc(-c2nc3ccc(Cl)cc3o2)cc1)c1cccnc1 [A4266, N-(4-(6-chlorobenzo[d]oxazol-2-yl)benzyl)nicotinamide]
JNK phosphorylation [1]: had the effect of inhibiting JNK phosphorylation

CS(=O)(=O)c1ccc2oc(-c3ccc(CNC(=O)c4cccnc4)cc3)nc2c1 [A4510H, N-(4-(5-(methylsulfonyl)benzo[d]oxazol-2-yl)benzyl)nicotinamide hydrochloride]
axon protective effect (axon survival score) [2]: exhibited an excellent axon protective effect

O=C(/C=C/c1cccnc1)NCCCCC1CCN(C(=O)c2ccccc2)CC1 [FK866]
axonal degeneration [3]: effect of partially inhibiting axonal degeneration

Nc1ccc(/C=C/C(=O)NCc2cc3cc(-c4ccc(C(=O)N5CCC(F)(F)CC5)cc4)cc(-c4ccc(F)cc4)c3o2)cn1 [KPT9274]
axon protective effect (degree of delay in Wallerian degeneration) [4]: did not exhibit a significant axon protective effect

CC(C)(O)CS(=O)(=O)Nc1ccc2c(c1)CCN(C(=O)COc1cccnc1)C2 [LSN 3154567]
axon protective effect (degree of delay in Wallerian degeneration) [4]: did not exhibit a significant axon protective effect
